Article PMC5856786, “A DHODH inhibitor increases p53 synthesis and enhances tumor cell killing by p53 degradation blockage” (Nature Communications, 2018)
Read-outs that look alike come from different tables or passages of the source. Values belong to the molecule of their own block, whether it stands above or below them.

Key:
[1] = In vivo pharmacokinetic parameters of (R)-HZ05; design: species or system C57B1/6N mice; conditions: for AUC(0-inf) / Cmax / Tmax / AUC / half-life / BA (%): mice; for AUC: read-out: AUC 0-h; for half-life: read-out: t (h) (half-life) (converted)
Procedure: Waters Acquity UPLC (Waters Corp.) was used for all LC/MS and LC/MS/MS experiments. For chromatographic separation a general gradient was used (5 % mobile phase B to 90 % over 2 min total run) on a C18 BEH 1.7 µm column 2 × 50 mm (Waters Corp.). Mobile phase A consisted of 5 % acetonitrile 0.1 % formic acid and mobile phase B 100 % acetonitrile 0.1 % formic acid. The flow rate was 0.5 mL min-1 and 3 µL of the sample was injected. A standard curve between 3−1000 nM was prepared for each compound. […]
In vivo Pharmacokinetic Parameter Determination
(R)-HZ05 was formulated for subcutaneous and oral administration at 5 mg mL-1 in 20 % hydroxypropyl-β-cyclodextrin in PBS and formulated at 5 mg mL-1 diluted in physiological NaCl. […]
Blood was collected […]
in EDTA tubes from three mice per time point and stored on ice with plasma separated within 30 min by centrifugation at 2000 g and stored at –80 ° C until analysis at 0.08, 0.25, 0.5, 1, 2, 3, 4, 6 and 24 h post administration. […] internal standard (9 nM warfarin) was added to each plasma sample and each sample was shaken at RT for 10 min followed by centrifugation at 2000 g for 30 min at 4 °C. […] of sample was injected into an Acquity UPLC coupled to a triple quadrupole mass spectrometer (Waters) operated in MRM mode with positive electrospray ionization. MRM transition 381.09 > […]
CV and 40 V for CE) as a qualifier ion. Transition for internal standard was 309.16 > 163.005 (22 V for CV and 14 V for CE). Ion source conditions were: capillary voltage, 2000 V; desolvation temperature, 500 °C; desol vation gas flow rate, 1000 L h-1. Separation was conducted using a BEH C18 column (2.1 × 50 mm, 1.7 µm, Waters) using a linear gradient: 0 – 0.5 min, 5 % B; […], 100 % B, 1.61–2.00 min, 5 % B. Mobile phase A was 5 % acetonitrile with 0.1 % formic acid and B […]
All animal experimentation was carried out by Sweden
Contract In vivo Design AB in compliance with 2010/63/EU directive and approved by Stockholms Norra Djurförsöksetiska Nämnd (laboratory animal eth ical committee Stockholm) with the approval number N61/15. Any single plasma concentration value deviated by >10 times from the other two values was excluded from the pharmacokinetic evaluation, but was included in the figure. […]

recombinant human DHODH = recombinant human DHODH (Homo sapiens, UniProt Q02127); test: Kinetic DHODH enzyme assay (3,4-dimethoxy-5-methyl-p-benzoquinone, DCIP); assay type: biochemical; design: made in house; conditions: Fig. 5a; average of three independent repeats ± SD
Procedure: In Fig. 5a enzyme assays were optimized and performed with 6 nM recombinant human DHODH prepared as described. The reaction mixture for these kinetic assays consisted of 1 mM DL-dihydroorotic acid, 100 µM 3,4-dimethoxy-5-methyl-p-benzoquinone (#D9150, Sigma-Aldrich), and 100 µM DCIP in enzyme buffer. A stock solution of 20 mM DCIP was prepared in enzyme buffer and filtered through filter paper (20–25 μm pore size) just before use. Loss in absorbance by DCIP was measured at 595 nm at RT in a stepped time course (8 × 2 min, 8 × 3 min, 6 × 5 min). […] Therefore, for each concentration of inhibitor tested, a value for DHODH’s Vmax was estimated by linear regression within this time frame.

[2] = tested on: H1299 p53-null xenograft tumors; test: H1299 p53-null xenograft; assay type: in vivo, mice
Text: Error bars illustrate ± SEM with significance determined by Multiple Student’s t-tests. […] See supplementary information for detailed description of protocol. d) Pharmacokinetic study examining the effect of co-administration of nutlin-3a and (R)-HZ05 on the plasma concentration of nutlin-3a over time. See supplementary information for detailed description of protocol. e) In vivo activity of (R)- HZ05 alone and in combination with nutlin-3 on H1299 p53-null xenograft tumors (n ≥ 6). […] In the tumor volume graph, (**) on day 4 indicates a statistical difference of Control to HZ05 and to nutlin-3a; (*) on day 7 indicates a difference between Control and nutlin-3a; and (**) on day 12 indicates a statistical difference between Control, […] 19

[3] = Pharmacokinetic study, nutlin-3 single or co-administered with (R)-HZ00; assay type: in vivo, NOD-SCID mice; conditions: mice; nutlin-3 100 mg kg-1 oral + (R)-HZ00 150 mg kg-1 i.p.
Procedure: Waters Acquity UPLC (Waters Corp.) was used for all LC/MS and LC/MS/MS experiments. For chromatographic separation a general gradient was used (5 % mobile phase B to 90 % over 2 min total run) on a C18 BEH 1.7 µm column 2 × 50 mm (Waters Corp.). Mobile phase A consisted of 5 % acetonitrile 0.1 % formic acid and mobile phase B 100 % acetonitrile 0.1 % formic acid. The flow rate was 0.5 mL min-1 and 3 µL of the sample was injected. A standard curve between 3−1000 nM was prepared for each compound.
Cocrystallization, data collection and structure determination of DHODH with inhibitor HZ05 Co-crystals were prepared similar to previously described6. In short 18 mg mL-1 DHODH (dissolved in 10 mM N,N-dimethylundecylamine N-oxide (C11DAO) (Fluka), 400 mM NaCl, 1 mM EDTA, 100 mM HEPES (pH 7), and 30 % glycerol) was mixed in a 1:1 ratio with 2 M NH4SO4, 0.1 M Na Acetate pH 4.8, 30 mM N,N-dimethyldodecylamine N-oxide (DDAO), 15 mM C11DAO, 2 mM L-dihydroorotic acid, 1 mM HZ05 and 6 % DMSO. The crystals did grow from hanging drops at 20°C in a VDX plate; 2.5 µL protein solution mixed with 2.5 µL reservoir (30 % (v/v) glycerol, 0.1 M Na acetate pH 4.8 and 2 M NH4SO4). A crystal was flashfrozen in liquid nitrogen and data was collected to 1.7 Å at Diamond Light Source beamline i02. The structure was determined using Molecular Replacement and refined in Refmac57. […]

ARN8 xenograft = test: ARN8 subcutaneous xenograft; assay type: in vivo; conditions: mice; (R)-HZ00 150 mg kg−1 i.p. q.d.; nutlin-3 100 mg kg−1 p.o. q.d.
Procedure: All animal xenograft experiments were approved by the Norwegian Animal Research Authority and conducted according to The European Convention for the Protection of Vertebrates Used for Scientific Purposes. […] The health status and weight of the mice were monitored daily and they were randomized in a non-blinded manner into 4 groups when tumor volumes reached 30–40 mm^3. […] Tumor volumes were measured every second day by a digital caliper using the following ellipsoid formula: Volume = π (length × width × height)/6.
To determine the efficacy of (R)-HZ05 in combination with nutlin-3a, 4 groups of NSG mice (n = 8 per group) were subcutaneously injected in the flank region with a single 100 μL injection of 2 × 10^6 ARN8 cells in a solution of PBS:Matrigel (volume ratio 3:1). Treatment was initiated when tumors reached ~50 mm^3. The maximum tolerated dose for this combination of drugs was previously determined for the strain we used. The endpoint of the experiment was determined by the tumor size ([…]) weight loss, and general condition of the mice according to The Norwegian Animal Research Authority.

[4] = female, C57B1/6N, mouse, plasma, iv, i.v, dose 5 mg kg-1
[5] = female, C57B1/6N, mouse, plasma, po, p.o, dose 50 mg kg-1
[6] = female, C57B1/6N, mouse, plasma, sc, s.c, dose 50 mg kg-1

Sequence of recombinant human DHODH (Q02127 29-395 limits assumed): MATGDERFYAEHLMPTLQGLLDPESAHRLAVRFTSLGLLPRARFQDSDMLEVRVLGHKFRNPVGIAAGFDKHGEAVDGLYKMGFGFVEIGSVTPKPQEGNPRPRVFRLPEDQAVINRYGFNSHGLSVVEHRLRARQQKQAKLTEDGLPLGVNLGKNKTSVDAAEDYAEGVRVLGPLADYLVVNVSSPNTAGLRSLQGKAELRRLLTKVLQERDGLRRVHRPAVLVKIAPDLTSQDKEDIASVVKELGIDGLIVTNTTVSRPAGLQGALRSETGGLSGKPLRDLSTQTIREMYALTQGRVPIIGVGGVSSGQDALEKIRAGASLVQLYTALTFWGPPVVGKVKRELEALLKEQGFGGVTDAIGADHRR

clearance ([1]; female, C57B1/6N, mouse, plasma, iv, 5 mg kg-1, mice, i.v): 90 mL/min/kg | Vd ([1]; female, C57B1/6N, mouse, plasma, iv, 5 mg kg-1, mice, i.v, read-out: Vd): 8.3 L/kg | Vd ([1]; female, C57B1/6N, mouse, plasma, iv, 5 mg kg-1, mice, i.v, read-out: Vss): 3.6 L/kg | AUC(0-inf) [1, 4]: 2.4 µM·h | Cmax [1, 4]: 6.1 µM | Tmax [1, 4]: 4.8 min | AUC [1, 4]: 2.4 µM·h | half-life [1, 4]: 1.1 h | AUC(0-inf) [1, 5]: 9.9 µM·h | Cmax [1, 5]: 7.5 µM | Tmax [1, 5]: 15 min | AUC [1, 5]: 9.9 µM·h | half-life [1, 5]: 2.9 h | AUC(0-inf) [1, 6]: 30 µM·h | Cmax [1, 6]: 14.9 µM | Tmax [1, 6]: 30 min | AUC [1, 6]: 30 µM·h | half-life [1, 6]: 2.5 h | BA (%) ([1]; p.o, dose 50 mg kg-1): 41% | BA (%) ([1]; s.c, dose 50 mg kg-1): > 100% | IC50 (recombinant human DHODH): 11 ± 0.94 nM
Structure (SMILES): O=C(N[C@@H]1CCCc2c1cnn2-c1ccccc1F)c1onc2c1CCCC2 [(R)-HZ05]
synergy with nutlin-3a in p53-null xenograft [2]: no synergy

Structure (SMILES): COc1ccc(C2=N[C@@H](c3ccc(Cl)cc3)[C@@H](c3ccc(Cl)cc3)N2C(=O)N2CCNC(=O)C2)c(OC(C)C)c1 [nutlin-3, reference compound]
half-life on co-administration with (R)-HZ00 [3]: not prolonged | toxicity in xenograft study (ARN8 xenograft): treatments had to be discontinued after 9 days due to the toxicity
